Numbers after ± are expanded uncertainties.
Settings: Liquid, Closed cell (Static) method

Compound	vapor or sublimation pressure (283.1 K)	vapor or sublimation pressure (293.1 K)	vapor or sublimation pressure (303.1 K)	vapor or sublimation pressure (312.9 K)	vapor or sublimation pressure (323.3 K)	vapor or sublimation pressure (333.3 K)	vapor or sublimation pressure (343.1 K)	vapor or sublimation pressure (293.2 K)	vapor or sublimation pressure (313.1 K)	vapor or sublimation pressure (323.2 K)	vapor or sublimation pressure (333.1 K)	vapor or sublimation pressure (283.2 K)	vapor or sublimation pressure (292.9 K)	vapor or sublimation pressure (302.9 K)	vapor or sublimation pressure (323.1 K)	vapor or sublimation pressure (333.2 K)	vapor or sublimation pressure (343.2 K)
CCC1CCC(=O)O1 (stereo unspecified) [2(3H)-furanone, 5-ethyldihydro-]	0.075 ± 0.008 kPa	0.128 ± 0.008 kPa	0.221 ± 0.008 kPa	0.356 ± 0.016 kPa	0.564 ± 0.019 kPa	0.862 ± 0.027 kPa	1.367 ± 0.1 kPa										
CC1CCCC(=O)O1 (stereo unspecified) [2H-pyran-2-one, tetrahydro-6-methyl-]	0.005 ± 0.002 kPa		0.025 ± 0.016 kPa				0.354 ± 0.02 kPa	0.011 ± 0.006 kPa	0.054 ± 0.004 kPa	0.103 ± 0.006 kPa	0.191 ± 0.01 kPa						
O=C1CCCCCO1 [6-hexanolactone]									0.213 ± 0.008 kPa			0.045 ± 0.002 kPa	0.079 ± 0.003 kPa	0.131 ± 0.006 kPa	0.339 ± 0.012 kPa	0.518 ± 0.021 kPa	0.768 ± 0.031 kPa

Reference: the NIST ThermoML archive (doi:10.1016/j.jct.2007.09.008)
